# Laboratory results taken from PubChem BioAssay AID2060617 (Molecular Pharmacology Branch, DTP, NCI, 2025).
# pIC50: −log10 of the molar value.
# Test system: 485368-065-R4-J2-PDC spheroids with HUVEC/MSC, viability
# Assay: Anticancer human tumor 485368-065-R4-J2-PDC patient-derived pancreatic carcinoma cell line growth inhibition [CLK]
# Settings: for pIC50: curve of first compound; for viability, T/C: stronger effect = lower value
# Procedure, shortened: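 Multi-cell-type spheroids combined patient-derived tumor cells with HUVEC endothelial cells and human mesenchymal stem cells. Paired agents were dosed in half-log steps down from about clinical Cmax, or from 10 microM where Cmax was unknown.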
# 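Also: spheroids exposed to compounds for seven days.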
# 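For viability, T/C in this document: 100% = DMSO vehicle control wells.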
smiles,measurement,setting,value
C=C(F)C(=O)N1CCN(c2nc(OCC3CCCN3C)nc3c2CCN(c2cccc4cccc(Cl)c24)C3)CC1CC#N (configuration not stated) + CNC(=O)c1ccc(Nc2nc(OC3CCCC3)c3c(-c4ccc5nc(C)oc5c4)c[nH]c3n2)c(OC)c1,pIC50,second compound 0.0316 µM,< 5.00
same,pIC50,second compound 0.1 µM,< 5.00
same,pIC50,second compound 0.316 µM,< 5.00
same,pIC50,second compound 1 µM,< 5.00
same,pIC50,second compound 3.16 µM,< 5.00
same,pIC50,second compound 10 µM,5.12
same,"viability, T/C","second compound 0.0316 µM, first compound 0.0316 µM",83.5%
same,"viability, T/C","second compound 0.0316 µM, first compound 0.1 µM",105%
same,"viability, T/C","second compound 0.0316 µM, first compound 0.316 µM",85.8%
same,"viability, T/C","second compound 0.0316 µM, first compound 1 µM",101%
same,"viability, T/C","second compound 0.0316 µM, first compound 3.16 µM",115%
same,"viability, T/C","second compound 0.0316 µM, first compound 10 µM",99%
same,"viability, T/C","second compound 0.1 µM, first compound 0.0316 µM",98.2%
same,"viability, T/C","second compound 0.1 µM, first compound 0.1 µM",95.4%
same,"viability, T/C","second compound 0.1 µM, first compound 0.316 µM",107%
same,"viability, T/C","second compound 0.1 µM, first compound 1 µM",112%
same,"viability, T/C","second compound 0.1 µM, first compound 3.16 µM",111%
same,"viability, T/C","second compound 0.1 µM, first compound 10 µM",108%
same,"viability, T/C","second compound 0.316 µM, first compound 0.0316 µM",79.8%
same,"viability, T/C","second compound 0.316 µM, first compound 0.1 µM",80.9%
same,"viability, T/C","second compound 0.316 µM, first compound 0.316 µM",89.1%
same,"viability, T/C","second compound 0.316 µM, first compound 1 µM",92.9%
same,"viability, T/C","second compound 0.316 µM, first compound 3.16 µM",82.7%
same,"viability, T/C","second compound 0.316 µM, first compound 10 µM",93.5%
same,"viability, T/C","second compound 1 µM, first compound 0.0316 µM",81.9%
same,"viability, T/C","second compound 1 µM, first compound 0.1 µM",79.7%
same,"viability, T/C","second compound 1 µM, first compound 0.316 µM",77.6%
same,"viability, T/C","second compound 1 µM, first compound 1 µM",78.5%
same,"viability, T/C","second compound 1 µM, first compound 3.16 µM",94.5%
same,"viability, T/C","second compound 1 µM, first compound 10 µM",107%
same,"viability, T/C","second compound 3.16 µM, first compound 0.0316 µM",74.4%
same,"viability, T/C","second compound 3.16 µM, first compound 0.1 µM",70.2%
same,"viability, T/C","second compound 3.16 µM, first compound 0.316 µM",76.1%
same,"viability, T/C","second compound 3.16 µM, first compound 1 µM",78.1%
same,"viability, T/C","second compound 3.16 µM, first compound 3.16 µM",80.9%
same,"viability, T/C","second compound 3.16 µM, first compound 10 µM",90.4%
same,"viability, T/C","second compound 10 µM, first compound 0.0316 µM",71.6%
same,"viability, T/C","second compound 10 µM, first compound 0.1 µM",76.4%
same,"viability, T/C","second compound 10 µM, first compound 0.316 µM",76.1%
same,"viability, T/C","second compound 10 µM, first compound 1 µM",80%
same,"viability, T/C","second compound 10 µM, first compound 3.16 µM",71.3%
same,"viability, T/C","second compound 10 µM, first compound 10 µM",43%
